Measured values as given in patent US7417062B2, “Substituted arylamides” (ChemoCentryx, Inc., priority 2004, dated 2008).
Like-named read-outs stand apart in the source and are kept apart here.

Molecular target: T1, CCXCKR2 receptor (Homo sapiens, UniProt P25106)
T1 construct: host or cells: MCF-7 (endogenous) and/or MDA-MB-435S transfected with hRDC1 in pcDNA3.1(+)
Assay: Displacement of 125I-labeled SDF-1 from the CCXCKR2 receptor (radioligand binding, determination of IC50 values)
Description: The ability of the compounds to displace the labeled chemokine from the CCXCKR2 receptor sites at multiple concentrations was then determined with the screening process.
Compounds that were deemed effective modulators were able to displace at least 50% of the SDF-1 from the CCXCKR2 receptor at concentrations at or below 10 micromolar (μM) and more preferably at concentrations at or below 2 micromolar. At present, especially preferred compounds can displace at least 50% of the SDF-1 from the CCXCKR2 receptor at concentrations at or below 500 nM. Exemplary compounds that met these criteria are reproduced in Table B below. All compounds were prepared as described in the Examples above, or by related methods substituting readily available starting materials.
Reagents and Cells. ^125I-labeled SDF-1 was purchased from Perkin-Elmer Life Sciences, Inc. (Boston, Mass.). The MCF-7 (adenocarcinoma; mammary gland) cell line was obtained from the American Type Culture Collection (Manassas, Va.) or and was cultured in DMEM (Mediatech, Herndon, Va.) supplemented with 10% fetal bovine serum (FBS) (HyClone Logan, Utah) and bovine insulin (0.01 mg/mL) (Sigma, St. Louis, Mo.) at 37° C. in a humidified incubator at a 5% CO2/air mixture. CCXCKR2 transfected MDA-MB-435S were produced as described below. MDA-MB-435S human breast cancer line, was purchased from ATCC, and cultured in DMEM/10% FBS medium. The complete coding sequence of the gene encoding CCXCKR2 (a.k.a.CXCR7, hRDC1), was isolated from MCF-7 cells using μMACs mRNA isolation kit (Miltenyi Biotec, Auburn, Calif.). DNA contamination was removed by DNase digestion via RNeasy columns (Qiagen, Inc., Valencia, Calif.) and cDNA was generated using GeneAmp RNA PCR Core Kit (Applied Biosystems, Foster City, Calif.). PCR of cDNA samples was performed using Taq PCR Master Mix kit (Qiagen, Inc.) and hRDC1 primers harboring 5′ and 3′ Not I sites (hRDC1F 5′-[…]-3′ (SEQ ID NO:1), hRDC1R 5′-[…]-3′ (SEQ ID NO:2)) Not I digested PCR product was ligated into Not I digested pcDNA3.1(+)(Invitrogen, Carlsbad, Calif.) and screened for orientation and sequence confirmed. Plasmid DNA was then isolated from overnight bacterial cultures by Maxiprep (Qiagen, Inc.). Plasmid DNA (10 μg) was added to MDA-MB-435s cells and cells were electroporated (0.22 kV, 960 uF) via Gene Pulser (Biorad laboratories, Hercules, Calif.). 48 hr post-electroporation, cells were transferred to selection medium (1000 ug/ml G418).
Binding Analysis. Target compounds were tested to determine their ability to bind with CCXCKR2 sites on MCF-7 and/or MDA-MB-435S cells. Efficiency-maximized radioligand binding using filtration protocols as described in Dairaghi D J, et al., HHV8-encoded vMIP-I selectively engages chemokine receptor CCR5. Agonist and antagonist profiles of viral chemokines., J. Biol. Chem. 1999 Jul. 30; 274(31): 21569-74 and Gosling J, et al., Cutting edge: identification of a novel chemokine receptor that binds dendritic cell-and T cell-active chemokines including ELC, SLC, and TECK., J. Immunol. 2000 Mar. 15; 164(6):2851-6 was used.
In these assays, MCF-7 and/or MDA-MB-435S cells were interrogated with the target compounds and the ability of these compounds to displace ^125I radiolabeled SDF-1 was assessed using the protocol described in Dairaghi and Gosling. The target compounds were added to the plate to the indicated concentration and were then incubated with cells followed by the addition of radiolabeled chemokine (^125I SDF-1) for 3 hr at 4° C. in the following binding medium (25 mM HEPES, 140 mM NaCl, 1 mM CaCl2, 5 mM MgCl2 and 0.2% bovine serum albumin, adjusted to pH 7.1). All assays were then incubated for 3 hrs at 4° C. with gentle agitation. Following incubation in all binding assays, reactions were aspirated onto PEI-treated GF/B glass filters (Packard) using a cell harvester (Packard) and washed twice (25 mM HEPES, 500 mM NaCl, 1 mM CaCl2, 5 mM MgCl2, adjusted to pH 7.1). […]

[1] = MCF-7 and/or MDA-MB-435S cells expressing CCXCKR2, 125I SDF-1, 3 hr at 4° C., read-out: Activity (ability to displace 125I SDF-1 from CCXCKR2)

T1 sequence (P25106 whole entry): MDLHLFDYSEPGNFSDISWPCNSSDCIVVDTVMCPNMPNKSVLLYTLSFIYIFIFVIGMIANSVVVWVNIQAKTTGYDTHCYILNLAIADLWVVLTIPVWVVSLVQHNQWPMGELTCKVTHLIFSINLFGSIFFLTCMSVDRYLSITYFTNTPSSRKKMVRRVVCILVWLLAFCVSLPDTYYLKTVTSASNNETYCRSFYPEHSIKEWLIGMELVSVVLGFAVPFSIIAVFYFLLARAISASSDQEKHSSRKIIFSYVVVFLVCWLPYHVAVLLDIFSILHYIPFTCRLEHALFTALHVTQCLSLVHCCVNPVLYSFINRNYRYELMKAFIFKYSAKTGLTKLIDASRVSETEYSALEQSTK

| SMILES | IC50 | IC50 [1] |
| --- | --- | --- |
| COc1cc(C(=O)N(Cc2cc3ccccc3cn2)C[C@@H]2CCCN2C[C@@H]2C[C@H]3CC[C@@H](C2)N3)cc2c1OC(C)(C)O2 [Example 63, 7-Methoxy-2,2-dimethyl-benzo[1,3]dioxole-5-carboxylic acid {(S)-1-[(1S,3S,5R)-1-(8-aza-bicyclo[3.2.1]oct-3-yl)methyl]-pyrrolidin-2-ylmethyl}-isoquinolin-3-ylmethyl-amide] | < 0.5 µM |  |
| COc1cc(C(=O)N(CCC2CCCN2C)Cc2cc3ccccc3s2)cc(OC)c1OC (centres unmarked) [Example 8, N-Benzo[b]thiophen-2-ylmethyl-3,4,5-trimethoxy-N-[2-(1-methyl-pyrrolidin-2-yl)-ethyl]-benzamide] |  | < 0.5 µM |
| COc1cc(C(=O)N(Cc2ccc3cc(Cl)ccc3n2)C[C@@H]2C[C@@H]3CCCC[C@@H]3N2)cc2c1OC(C)(C)O2 [Example 73, 7-Methoxy-2,2-dimethyl-benzo[1,3]dioxole-5-carboxylic acid (6-chloro-quinolin-2-ylmethyl)-[(2S,3aS,7aS)-1-(octahydro-indol-2-yl)methyl]-amide] |  | < 0.5 µM |
| COc1cc(C(=O)N(Cc2cc3cc(Cl)ccc3o2)C[C@@H]2CCCN2)ccc1OC(F)F |  | < 0.5 µM |
| COc1ccc(C(=O)N(Cc2nc3ccccc3s2)C[C@@H]2CCCN2C(C)C)cc1OC [Example 28, N-Benzothiazol-2-yl methyl-(S)—N-(1-isopropyl-pyrrolidin-2-ylmethyl)-3,4-dimethoxy-benzamide] |  | < 0.5 µM |
| COc1cc(C(=O)N(Cc2nc(-c3ccccn3)sc2Cl)C[C@@H]2CCCN2C2CCC2)cc2c1OC(C)(C)O2 |  | < 10 µM |
| COc1cc(C(=O)N(CCC2CCCN2C)Cc2cnc3ccccc3c2)cc(OC)c1OC (centres unmarked) [Example 10] |  | < 10 µM |
| COc1cc(C(=O)N(Cc2ccc3ccccc3n2)CC2CNC2)cc2c1OC(C)(C)O2 [Example 48, 7-Methoxy-2,2-dimethyl-benzo[1,3]dioxole-5-carboxylic acid azetidin-3-ylmethyl-quinolin-2-ylmethyl-amide] |  | < 0.5 µM |
| COc1ccc(C(=O)N(Cc2nc3ccccc3s2)C[C@@H]2CCCN2)cc1OC [Example 25, N-Benzothiazol-2-yl methyl-3,4 dimethoxy-N—(S)-pyrrolidin-2-ylmethyl-benzamide] |  | < 2 µM |
| COc1cc(C(=O)N(Cc2cc3ccccc3c[n+]2[O-])C[C@@H]2C[C@@H]3CCCC[C@@H]3N2)cc2c1OC(C)(C)O2 [Example 65, 7-Methoxy-2,2-dimethyl-benzo[1,3]dioxole-5-carboxylic acid [(2S,3aS,7aS)-1-(octahydro-indol-2-yl)methyl]-(2-oxy-isoquinolin-3-ylmethyl)-amide] |  | < 2 µM |
| COc1cc(C(=O)N(Cc2cc3ccccc3cn2)C[C@@H]2C[C@@H]3CCCC[C@@H]3N2)cc2c1OC(C)(C)O2 [Example 64, 7-Methoxy-2,2-dimethyl-benzo[1,3]dioxole-5-carboxylic acid isoquinolin-3-ylmethyl-[(2S,3aS,7aS)-1-(octahydro-indol-2-yl)methyl]-amide] |  | < 0.5 µM |
| COc1cc(C(=O)N(Cc2cc3ccccc3s2)C[C@@H]2CCCN2C2CCC2)cc2c1OC(C)(C)O2 [Example 60, 7-Methoxy-2,2-dimethyl-benzo[1,3]dioxole-5-carboxylic acid benzo[b]thiophen-2-ylmethyl-((S)-1-cyclobutyl-pyrrolidin-2-ylmethyl)-amide] |  | < 0.5 µM |
| COc1cc(C(=O)N(CCC2CCCN2C)Cc2cccc3ccccc23)cc(OC)c1OC (centres unmarked) [Example 6, 3,4,5-Trimethoxy-N[2-(1-methyl-pyrrolidin-2-yl)-ethyl]-N-naphthalen-1-ylmethyl-benzamide] |  | < 2 µM |
| COc1cc(C(=O)N(CCC2CCCN2C)Cc2cc3ccccc3o2)cc(OC)c1OC (centres unmarked) [Example 7, N-Benzofuran-2-ylmethyl-3,4,5-trimethoxy-N-[2-(1-methyl-pyrrolidin-2-yl)-ethyl]-benzamide] |  | < 0.5 µM |
